# Reference: patent US8852928B2, “LexA-based chemical-inducible gene expression system for use in transgenic animals” (Temasek Life Sciences Laboratory Limited, priority 2007, dated 2014)
# Biological target: T1, LexPR transactivator (Homo sapiens, UniProt P06401)
# T1 construct: expressed in transfected cells; host or cells: germline-transgenic zebrafish (Danio rerio) carrying the Ds transposon driver cassette pDs(krt8:LPR-LOP:G4) or derivatives
# T1 sequence (P06401 640-914): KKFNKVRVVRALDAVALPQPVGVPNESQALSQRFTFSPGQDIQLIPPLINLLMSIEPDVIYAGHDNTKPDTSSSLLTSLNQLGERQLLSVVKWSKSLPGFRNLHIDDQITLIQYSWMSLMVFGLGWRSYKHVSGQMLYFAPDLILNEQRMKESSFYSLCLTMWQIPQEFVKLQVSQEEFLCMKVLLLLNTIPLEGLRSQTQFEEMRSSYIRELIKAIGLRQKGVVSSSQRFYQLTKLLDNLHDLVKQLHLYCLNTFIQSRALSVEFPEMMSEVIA
# Experiment: Inducible expression of EGFP-KrasV12 in transgenic zebrafish
# Format: in vivo
# Conditions: 10 μM at 10 hpf onwards
# Text: Transgenic zebrafish line harboring insertion of the binary driver construct Ds(krt8:LPR-LOP:EGFP-Kras^V12) containing EGFP-Kras^V12 under control of the LexOP, F2 (FIG. 12a-12e, FIG. 12g). FIG. 12a: 24 hpf, no induction. […] FIG. 12f: Transgenic fish harboring the unmodified driver-reporter construct pDs(krt8:LPR-LOP:G4) containing EGFP gene under control of the LexOP.
smiles,measurement,value
CC#C[C@]1(O)CC[C@H]2[C@@H]3CCC4=CC(=O)CCC4=C3[C@@H](c3ccc(N(C)C)cc3)C[C@@]21C [mifepristone],Effect of induced EGFP-KrasV12 expression on F2 embryos,embryo development was severely affected
